Experimental data taken from patent publication US20240425441A9, “MODULATORS OF LIPOXYGENASE AND CYCLOOXYGENASE ENZYME ACTIVITY” (Université de Moncton, priority 2016, published 2024).
Read-outs that look alike come from different tables or passages of the source.

Legend:
Assay type in all cases: cell-based
5-lipoxygenase [1] = molecular target: T1, 5-lipoxygenase (Homo sapiens (Human), UniProt P09917); experiment: Stimulation of isolated PMN (neutrophils) for 5-LO products; conditions: ranges indicate confidence interval, read-out: PMN dose-response
Description: Briefly, blood was centrifuged at 300×g for 5 min at room temperature, plasma was collected and erythrocytes were removed after dextran sedimentation.
Isolated PMN (1×10^7 cells/mL) resuspended in Hank's balanced salt solution (HBSS, Lonza, Walkerville, MD) containing 1.6 mM CaCl2) were pre-incubated with test compounds for 5 min at 37° C. in the presence of 1 U/mL of adenosine deaminase. […] Reactions were stopped with the addition of 0.5 volume of cold MeOH:CH3CN (1:1) and 50 ng of PGB2 as internal standard, and samples were stored at −20° C. overnight for protein denaturation. […] Total 5-LO products quantified represents the sum of LTB4, its trans isomers, 20-COOH— and 20-OH-LTB4 and 5-hydroxyeicosatetraenoic acid.

5-lipoxygenase [2] = molecular target: T1, 5-lipoxygenase; experiment: Ex vivo whole blood stimulation with zymosan; total 5-LO products; conditions: zymosan-stimulated whole blood; read-out: Whole blood dose-response
Description: Each compound or its diluent was added to heparinized blood obtained from healthy donors (1 mL) at the indicated concentration and incubated for 10 min at 37° C. in a water bath. Following incubations, 125 μL of 40 mg/mL opsonised zymosan was added to each sample, gently vortexed and incubated for 30 min at 37° C. Samples were then centrifuged for 10 min at 960×g at 4° C. Plasma, 350 μL, was removed and added to 1.2 ml of methanol:acetonitrile (1:1) and 50 ng of PGB2 as internal standard. Samples were left overnight at −20° C. for protein denaturation. […] Total 5-LO products quantified represents the sum of LTB4, its trans isomers, 20-COOH— and 20-OH-LTB4 and 5-hydroxyeicosatetraenoic acid.

5-lipoxygenase [3] = molecular target: T1, 5-lipoxygenase; experiment: Stimulation of HEK293 cells stably transfected with 5-LO and FLAP; total 5-LO products by HPLC; conditions: HEK293 cells expressing 5-LO and FLAP; ranges indicate confidence interval; read-out: HEK Dose-response
Description: HEK293 cells were detached by trypsinization and re-suspended in Hank's balanced salt solution containing 1.6 mM CaCl2). Cells (1×10^6 cells/mL) were preincubated at 37° C. with the test compounds or their diluent for 5 minutes and were then stimulated at 37° C. with 10 μM ionophore A23187 and 10 μM AA for 15 min. Stimulations were stopped by adding 0.5 volumes of a methanol:acetonitrile (1:1) solution containing 100 ng/mL each of PGB2 and 19-OH-PGB2 as internal standards, and samples were then kept at −20° C. overnight for protein denaturation. […] Total 5-LO products quantified represents the sum of LTB4, its trans isomers and 5-hydroxyeicosatetraenoic acid.

COX-1 = COX-1 (Homo sapiens (Human), UniProt P23219); experiment: COX-1 inhibitory activity in human platelets; conditions: read-out: Percent inhibition at 1 μM
COX-2 = COX-2 (Homo sapiens (Human), UniProt P35354); experiment: COX-2 activity, products from LPS-primed human neutrophils; conditions: 100% no inhibition, 0% complete inhibition
[4] = read-out: % of control COX-2 activity, n = 1
[5] = read-out: % of control COX-2 activity, n = 2

Chain of COX-2 (P35354 18-604): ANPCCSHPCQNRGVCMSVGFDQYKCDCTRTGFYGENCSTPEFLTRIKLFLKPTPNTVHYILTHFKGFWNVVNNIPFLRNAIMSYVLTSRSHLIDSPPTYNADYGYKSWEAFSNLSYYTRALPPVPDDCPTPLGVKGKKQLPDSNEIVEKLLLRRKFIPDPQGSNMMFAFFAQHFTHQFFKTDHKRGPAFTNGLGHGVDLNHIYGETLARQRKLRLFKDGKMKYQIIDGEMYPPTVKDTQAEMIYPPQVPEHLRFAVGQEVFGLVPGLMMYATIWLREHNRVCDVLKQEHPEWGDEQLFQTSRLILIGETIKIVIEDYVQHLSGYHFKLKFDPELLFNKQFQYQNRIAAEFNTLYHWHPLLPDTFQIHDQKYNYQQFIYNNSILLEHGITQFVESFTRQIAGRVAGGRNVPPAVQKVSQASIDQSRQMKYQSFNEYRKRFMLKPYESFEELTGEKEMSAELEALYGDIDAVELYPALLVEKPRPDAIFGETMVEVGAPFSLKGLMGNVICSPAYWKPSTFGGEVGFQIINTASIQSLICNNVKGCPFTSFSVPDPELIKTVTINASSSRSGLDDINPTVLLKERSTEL
T1 sequence (P09917 whole entry): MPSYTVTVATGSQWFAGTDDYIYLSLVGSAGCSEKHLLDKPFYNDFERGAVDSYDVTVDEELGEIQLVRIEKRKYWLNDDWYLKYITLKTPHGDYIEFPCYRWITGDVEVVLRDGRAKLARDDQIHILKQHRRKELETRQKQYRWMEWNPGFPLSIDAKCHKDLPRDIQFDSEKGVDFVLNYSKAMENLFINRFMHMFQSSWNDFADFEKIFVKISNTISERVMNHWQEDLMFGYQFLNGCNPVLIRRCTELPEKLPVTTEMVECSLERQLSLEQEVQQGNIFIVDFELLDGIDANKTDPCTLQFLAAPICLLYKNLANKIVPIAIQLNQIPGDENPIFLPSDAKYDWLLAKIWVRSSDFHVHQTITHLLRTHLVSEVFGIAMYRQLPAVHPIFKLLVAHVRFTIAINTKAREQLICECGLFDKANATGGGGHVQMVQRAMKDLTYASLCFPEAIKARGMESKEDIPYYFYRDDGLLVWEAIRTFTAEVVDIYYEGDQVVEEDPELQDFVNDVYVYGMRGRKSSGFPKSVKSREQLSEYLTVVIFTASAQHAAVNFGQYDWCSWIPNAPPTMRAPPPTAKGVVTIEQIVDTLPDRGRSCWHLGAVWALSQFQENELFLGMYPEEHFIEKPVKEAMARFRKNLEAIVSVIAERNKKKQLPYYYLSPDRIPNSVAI
Chain of COX-1 (P23219 24-599): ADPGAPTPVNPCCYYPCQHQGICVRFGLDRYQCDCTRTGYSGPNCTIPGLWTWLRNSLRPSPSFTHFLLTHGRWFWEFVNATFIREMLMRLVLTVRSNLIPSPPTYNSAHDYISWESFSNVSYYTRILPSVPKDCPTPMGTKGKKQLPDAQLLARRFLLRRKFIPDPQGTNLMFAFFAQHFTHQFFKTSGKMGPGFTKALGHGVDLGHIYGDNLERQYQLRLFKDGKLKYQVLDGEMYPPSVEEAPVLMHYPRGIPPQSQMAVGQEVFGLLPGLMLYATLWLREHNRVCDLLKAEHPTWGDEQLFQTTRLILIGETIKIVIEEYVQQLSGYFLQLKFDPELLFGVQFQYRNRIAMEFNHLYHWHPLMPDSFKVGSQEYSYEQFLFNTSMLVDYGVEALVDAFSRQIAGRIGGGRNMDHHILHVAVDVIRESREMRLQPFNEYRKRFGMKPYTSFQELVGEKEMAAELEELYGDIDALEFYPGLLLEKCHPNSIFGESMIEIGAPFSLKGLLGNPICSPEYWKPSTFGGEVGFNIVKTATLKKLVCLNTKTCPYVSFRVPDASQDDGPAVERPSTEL

O=C(C=Cc1ccc(O)c(O)c1)OCC=Cc1ccccc1 (stereo in doubt) [Compound 4, (E)-(Z)-3-phenylallyl 3-(3,4-dihydroxyphenyl)acrylate]
IC50 (5-lipoxygenase [1]): 760 nM

O=C(/C=C/c1ccc(O)c(O)c1)OCCc1ccccc1 [CAPE, caffeic acid phenethyl ester, reference compound]
IC50 (5-lipoxygenase [2]): 3400 nM | IC50 (5-lipoxygenase [1]): 840 to 1100 nM | IC50 (5-lipoxygenase [3]): 650 to 1200 nM

O=C(CCc1ccc(O)c(O)c1)OCCCCc1ccccc1 [Compound 1, 4-phenylbutyl 3-(3,4-dihydroxyphenyl)propanoate]
IC50 (5-lipoxygenase [1]): 870 nM

O=C(CCc1ccc(O)c(O)c1)OCCCCCc1ccccc1 [Compound 2, 5-phenylpentyl 3-(3,4-dihydroxyphenyl)propanoate]
IC50 (5-lipoxygenase [2]): 2800 nM | IC50 (5-lipoxygenase [1]): 860 nM

O=C(CCc1ccc(O)c(O)c1)OCCCCCCc1ccccc1 [Compound 3, 6-phenylhexyl 3-(3,4-dihydroxyphenyl)propanoate]
IC50 (5-lipoxygenase [2]): 2400 nM | IC50 (5-lipoxygenase [1]): 510 nM

COc1cc(/C=C/C(=O)OCCCc2ccccc2)cc(OC)c1O [Compound 6, (E)-3-phenylpropyl 3-(4-hydroxy-3,5-dimethoxyphenyl)acrylate]
IC50 (5-lipoxygenase [1]): 350 nM

C=C(C)CCOC(=O)/C=C/c1ccc(O)c(O)c1 [Compound 17, (E)-3-methylbut-3-en-1-yl 3-(3,4-dihydroxyphenyl)acrylate]
IC50 (5-lipoxygenase [1]): 860 nM

O=C(/C=C/c1ccc(O)c(O)c1)OCCc1ccc(F)cc1 [Compound 20, (E)-4-fluorophenethyl 3-(3,4-dihydroxyphenyl)acrylate]
inhibition at 1 µM (COX-1): 37.2%

Cc1ccc(CCOC(=O)/C=C/c2ccc(O)c(O)c2)cc1 [Compound 21, (E)-4-methylphenethyl 3-(3,4-dihydroxyphenyl)acrylate]
inhibition at 1 µM (COX-1): 44.6%

COc1ccc(CCOC(=O)/C=C/c2ccc(O)c(O)c2)cc1 [Compound 22, (E)-4-methoxyphenethyl 3-(3,4-dihydroxyphenyl)acrylate]
inhibition at 1 µM (COX-1): 39.6%

O=C(/C=C/c1ccc(O)c(O)c1)OCCCc1ccccc1 [Compound 25, (E)-3-phenylpropyl 3-(3,4-dihydroxyphenyl)acrylate]
remaining activity at 1 µM (COX-2; [4]): 34.9% | remaining activity at 1 µM (COX-2; [5]): 81.3% | remaining activity at 1 µM (COX-2; read-out: Avg % of control): 58.1% | IC50 (5-lipoxygenase [1]): 590 to 820 nM

O=C(/C=C/c1ccc(O)c(O)c1)OCC(c1ccccc1)c1ccccc1 [Compound 27, (E)-2,2-diphenylethyl 3-(3,4-dihydroxyphenyl)acrylate]
IC50 (5-lipoxygenase [1]): 720 nM

O=C(/C=C/c1ccc(O)c(O)c1)OC/C=C/c1ccccc1 [Compound 31, (E)-cinnamyl 3-(3,4-dihydroxyphenyl)acrylate]
IC50 (5-lipoxygenase [1]): 1030 nM

O=C(CCc1ccc(O)c(O)c1)OCCc1ccccc1 [Compound 32, phenethyl 3-(3,4-dihydroxyphenyl)propanoate]
inhibition at 1 µM (COX-1): 42% | remaining activity at 1 µM (COX-2; [4]): 34.3% | remaining activity at 1 µM (COX-2; [5]): 69% | remaining activity at 1 µM (COX-2; read-out: Avg % of control): 51.6% | IC50 (5-lipoxygenase [1]): 1000 nM

O=C(CCc1ccc(O)c(O)c1)OCCCc1ccccc1 [Compound 33, 3-phenylpropyl 3-(3,4-dihydroxyphenyl)propanoate]
remaining activity at 1 µM (COX-2; [4]): 7.6% | remaining activity at 1 µM (COX-2; [5]): 45.3% | remaining activity at 1 µM (COX-2; read-out: Avg % of control): 26.4% | IC50 (5-lipoxygenase [1]): 890 nM

O=C(Cc1ccc(O)c(O)c1)OCCc1ccccc1 [Compound 34, phenethyl 2-(3,4-dihydroxyphenyl)acetate]
inhibition at 1 µM (COX-1): < 20%

O=C(Cc1ccc(O)c(O)c1)OCCCc1ccccc1 [Compound 35, 3-phenylpropyl 2-(3,4-dihydroxyphenyl)acetate]
IC50 (5-lipoxygenase [1]): 790 nM

O=C(OCCc1ccccc1)c1ccc(O)c(O)c1 [Compound 36, phenethyl 3,4-dihydroxybenzoate]
inhibition at 1 µM (COX-1): < 20%

O=C(OCCc1ccccc1)c1cc(O)c(O)c(O)c1 [Compound 38, phenethyl 3,4,5-trihydroxybenzoate]
IC50 (5-lipoxygenase [2]): 2800 nM | IC50 (5-lipoxygenase [1]): 790 nM

O=C(/C=C/c1ccc(O)c(O)c1)OCCCCc1ccccc1 [Compound 39, (E)-4-phenylbutyl 3-(3,4-dihydroxyphenyl)acrylate]
remaining activity at 1 µM (COX-2; [4]): 62.9% | remaining activity at 1 µM (COX-2; [5]): 90.2% | remaining activity at 1 µM (COX-2; read-out: Avg % of control): 76.6% | IC50 (5-lipoxygenase [1]): 600 nM

O=C(/C=C/c1ccc(O)c(O)c1)OCCCCCc1ccccc1 [Compound 40, (E)-5-phenylpentyl 3-(3,4-dihydroxyphenyl)acrylate]
remaining activity at 1 µM (COX-2; [4]): 37.8% | remaining activity at 1 µM (COX-2; [5]): 86.4% | remaining activity at 1 µM (COX-2; read-out: Avg % of control): 62.1% | IC50 (5-lipoxygenase [1]): 530 nM

O=C(/C=C/c1ccc(O)c(O)c1)OCCCCCCc1ccccc1 [Compound 41, (E)-6-phenylhexyl 3-(3,4-dihydroxyphenyl)acrylate]
IC50 (5-lipoxygenase [1]): 840 nM

COc1cc(/C=C/C(=O)OCCc2ccccc2)cc(OC)c1O [Compound 45, (E)-phenethyl 3-(4-hydroxy-3,5-dimethoxyphenyl)acrylate]
IC50 (5-lipoxygenase [1]): 300 nM

O=C(/C=C/c1ccc(O)c(O)c1)NCCCc1ccccc1 [Compound 55, (E)-3-(3,4-dihydroxyphenyl)-N-(3-phenylpropyl)acrylamide]
remaining activity at 1 µM (COX-2; [4]): 103% | remaining activity at 1 µM (COX-2; [5]): 101% | remaining activity at 1 µM (COX-2; read-out: Avg % of control): 102% | IC50 (5-lipoxygenase [1]): 1600 nM

O=C(/C=C/c1ccc(O)c(O)c1)NCCCCc1ccccc1 [Compound 56, (E)-3-(3,4-dihydroxyphenyl)-N-(4-phenylbutyl)acrylamide]
IC50 (5-lipoxygenase [1]): 920 nM

O=C(/C=C/c1ccc(O)c(O)c1)CCc1ccccc1 [Compound 59, (E)-1-(3,4-dihydroxyphenyl)-5-phenylpent-1-en-3-one]
IC50 (5-lipoxygenase [1]): 840 nM
